Among the data in US9453023B2, “Substituted phenyl cycloalkyl pyrrolidine (piperidine) spirolactams and amides, preparation and therapeutic use thereof” (SANOFI, priority 2010, dated 2016) are Ki values, retold here.

Chain of rhesus (Macacca Mulatta) H3 receptor (Q865E1 1-445): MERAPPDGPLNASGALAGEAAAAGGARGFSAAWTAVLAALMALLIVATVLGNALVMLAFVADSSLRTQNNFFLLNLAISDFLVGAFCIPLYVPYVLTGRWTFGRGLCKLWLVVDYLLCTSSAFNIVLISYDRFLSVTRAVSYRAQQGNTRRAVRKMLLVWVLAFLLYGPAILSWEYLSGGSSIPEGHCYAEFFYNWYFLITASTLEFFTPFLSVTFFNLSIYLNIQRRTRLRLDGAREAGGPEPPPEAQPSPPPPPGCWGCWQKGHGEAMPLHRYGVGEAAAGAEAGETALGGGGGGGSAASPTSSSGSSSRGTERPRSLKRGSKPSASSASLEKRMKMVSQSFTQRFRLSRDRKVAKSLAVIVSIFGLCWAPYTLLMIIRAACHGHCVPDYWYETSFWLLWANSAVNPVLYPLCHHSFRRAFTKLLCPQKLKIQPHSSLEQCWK

The assay concerns the target rhesus (Macacca Mulatta) H3 receptor (Macaca mulatta, UniProt Q865E1). Description: Rhesus H3 radioligand binding assay ([3H]-Methylhistamine, WGA SPA). Further details: species or system rhesus monkey (Macacca Mulatta). As to conditions: displacement of [3H]-Methylhistamine (2 nM) from rhesus H3 receptor membranes; Cheng-Prusoff. On the procedure:
(Genbank #AY231164). Stably transfected cultures were amplified in tissue culture flasks by standard tissue culture methods and induced to express rhesus H3 by exposure to 500 ng/ml tetracycline (Cellgro) for 24 hours. After induction, cells were dissociated from flasks utilizing Cell Stripper (Cellgro). Cells were centrifuged (1K×g, 5 min) and pellet frozen in an ethanol-dry ice bath to disrupt cell membranes. Frozen cell pellet was re-suspended in 5 mM HEPES (pH 7.4, Invitrogen) at 10 ml/1000 cm2 of harvested cells. The cell suspension was drawn through an 18 gauge needle (2-3×) followed by a 23 gauge needle (2-3×) to further disrupt cell membranes. The cell suspension was centrifuged (40K×g, 30 min). Cell membrane pellet was re-suspended in 5 mM HEPES (pH 7.4, Invitrogen) at a final protein concentration of 10 mg/ml. Rhesus H3 membranes were stored under liquid nitrogen prior to use in [3H]-Methylhistamine and GTPγS radioligand binding assays.
Rhesus H3 radioligand binding assay was performed using rhesus H3 receptor membranes (prepared as described above), [3H]-Methylhistamine (Perkin Elmer) and WGA SPA beads (wheat germ agglutinin scintillation proximity assay) beads (Amersham). The assay was performed in 96-well Opti-Plates (Packard). Each reaction contained 50 μl rhesus H3 membranes (20-30 μg total protein), 50 μl WGA SPA beads (0.1 μg) and 50 μl of 83 Ci/mmol [^3H]-Methylhistamine (final concentration 2 nM) and 50 μl of tested compound. The compounds of this invention and/or vehicle were diluted with binding buffer from 10 mM DMSO stocks. Assay plates were sealed with TopSeal (Perkin Elmer) and mixed on shaker (25° C., 1 hour). Assay plates were read on TopCount scintillation counter (Packard). Results were analyzed by Hill transformation and Ki values were determined by Cheng-Prusoff equation.
Background: Displacement assays read how much labelled ligand stays bound in the presence of the test substance.
In turn, `C[C@H]1CCCN1C1CC[C@H](c2ccc(NC(=O)c3ccccc3OC(F)(F)F)cc2)C1` (stereo partly drawn) [Example 35, N-{4-[(S)-3-((S)-2-Methyl-pyrrolidin-1-yl)-cyclopentyl]-phenyl}-2-trifluoromethoxy-benzamide] registered a Ki of 136 nM.
Turning to `C[C@H]1CCCN1C1CC[C@H](c2ccc(NC(=O)c3ccc(OC(F)(F)F)cc3)cc2)C1` (stereo partly drawn) [Example 36, N-{4-[(S)-3-((S)-2-Methyl-pyrrolidin-1-yl)-cyclopentyl]-phenyl}-4-trifluoromethoxy-benzamide], the affinity, expressed as Ki, was 48.5 nM.
With `C[C@H]1CCCN1C1CC[C@H](c2ccc(NC(=O)Cc3ccccc3)cc2)C1` (stereo partly drawn) [Example 37, N-{4-[(S)-3-((S)-2-Methyl-pyrrolidin-1-yl)-cyclopentyl]-phenyl}-2-phenyl-acetamide] the figure was 71.4 nM; with `CC1CCCN1C1CC[C@H](c2ccc(NC(=O)OCc3ccccc3)cc2)C1` (stereo partly drawn) [Intermediate (10), {4-[(S)-3-(2-Methyl-pyrrolidin-1-yl)-cyclopentyl]-phenyl}-carbamic acid benzyl ester], 65.4 nM.

As usually defined, the Ki is a measure of affinity in units of concentration, obtained from inhibition or displacement.
